From ChEMBL document CHEMBL4043090 (Bioorg Med Chem, 2017)

Experiments:
[1] = Cytotoxicity against human PBMC assessed as reduction in cell viability by MTS assay; assay type: cell-based; conditions: read-out: TC50 (the source's name)
[2] = tested on: Human immunodeficiency virus 1; experiment: Antiviral activity against HIV-1 Bal infected in human MAGI-CCR5 cells assessed as reduction in viral infection after 48 hrs by fluorescence based beta-galactosidase reporter gene assay; assay type: functional, cell-based; conditions: for IC50 / IC90: Human immunodeficiency virus 1, Bal, MAGI-CCR5, 48 h
[3] = Therapeutic index, ratio of TC50 for human PBMC to IC50 for HIV-1 Bal infected in human PBMC
PBMC = experiment: Antiviral activity against HIV-1 Bal infected in human PBMC by MTS assay; assay type: functional, cell-based
[4] = Therapeutic index, ratio of TC50 for human MAGI-CCR5 cells to IC50 for HIV-1 Bal infected in MAGI-CCR5 cells
[5] = Cytotoxicity against human MAGI-CCR5 cells assessed as reduction in cell viability after 48 hrs by MTS assay; assay type: cell-based; conditions: read-out: TC50

Compound | CC50 [1] | Activity [2] | IC50 [2] | IC90 [2] | TI [3] | IC50 (PBMC) | IC90 (PBMC) | TI [4] | CC50 at 48 h [5]
COc1ncccc1C1NC(=O)NC(C)=C1c1nc(-c2ccc(C#N)cc2)cs1 (configuration not stated) | > 100 µM | Dose-dependent effect | 3.8 µM | 66 µM | 39 | 2.6 µM | 7.3 µM | 26 | > 100 µM
CC1=C(c2nc(-c3cccc(C#N)c3)cs2)C(c2cccc(O)c2)NC(=O)N1 (configuration not stated) | 74 µM | Dose-dependent effect | 8.7 µM | 38.1 µM | 15 | 5 µM | 15.1 µM | 6 | 51.8 µM
CC1=C(c2nc(-c3cccc(C#N)c3)cs2)C(c2ccc(O)cc2)NC(=O)N1 (configuration not stated) | 87.5 µM | Dose-dependent effect | 4.4 µM | 40.9 µM | 27 | 3.3 µM | 10.2 µM | 16 | 69.6 µM
CC1=C(c2nc(-c3ccc(C#N)cc3)cs2)C(c2cncc(F)c2)NC(=O)N1 (configuration not stated) | > 100 µM | Dose-dependent effect | 0.7 µM | > 100 µM | 189 | 0.53 µM | 1.3 µM | 143 | > 100 µM
CC1=C(c2nc(-c3ccc(C#N)cc3)cs2)C(c2ccc(OC(F)(F)F)cc2)NC(=O)N1 (configuration not stated) | > 100 µM | Dose-dependent effect | 1.6 µM | 7.6 µM | 12 | 8.6 µM | 21 µM | 63 | > 100 µM
COc1cncc(C2NC(=O)NC(C)=C2c2nc(-c3ccc(C#N)cc3)cs2)c1 (configuration not stated) | – | – | 10.4 µM | > 100 µM | – | – | – | 9.6 | > 100 µM
CC1=C(c2nc(-c3cccc(C#N)c3)cs2)C(c2cccc(O)c2)NC(=O)N1C (configuration not stated) | 64.2 µM | Dose-dependent effect | 55.4 µM | 89.2 µM | 4.4 | 14.5 µM | 59.6 µM | 1.8 | > 100 µM
CC1=C(c2nc(-c3ccc(C#N)cc3)cs2)C(c2ccnc(Cl)c2)NC(=O)N1 (configuration not stated) | > 100 µM | Dose-dependent effect | 3.2 µM | > 100 µM | 23 | 4.4 µM | 44.5 µM | 31 | > 100 µM
CC1=C(c2nc(-c3ccc(Br)cc3)cs2)C(c2cccc(O)c2)NC(=O)N1 (configuration not stated) | 56 µM | Dose-dependent effect | 2.3 µM | 15 µM | 16 | 3.6 µM | 12 µM | 26 | 60 µM
CC1=C(c2nc(-c3ccc(C#N)cc3)cs2)C(c2cccnc2F)NC(=O)N1 (configuration not stated) | > 100 µM | Dose-dependent effect | 0.44 µM | 2.6 µM | 385 | 0.26 µM | 0.83 µM | 227 | > 100 µM
CC1=C(c2nc(-c3ccc(C#N)cc3)cs2)C(c2ccc(OCc3ccccc3)cc2)NC(=O)N1 (configuration not stated) | > 100 µM | Dose-dependent effect | 0.13 µM | 0.75 µM | 476 | 0.21 µM | 0.6 µM | 77 | > 10 µM
CC1=C(c2nc(-c3ccc4ccccc4c3)cs2)C(c2cccc(O)c2)NC(=O)N1 (configuration not stated) | 47 µM | Dose-dependent effect | 43 µM | 84 µM | 3.6 | 13 µM | 29 µM | 1.3 | 55 µM
CC1=C(c2nc(-c3ccc(C#N)cc3)cs2)C(c2ccc(Oc3ccccc3)nc2)NC(=O)N1 (configuration not stated) | 67.5 µM | Dose-dependent effect | 0.64 µM | 2.8 µM | 56 | 1.2 µM | 3.4 µM | 156 | > 100 µM
CC1=C(c2nc(-c3cccc(O)c3)cs2)C(c2cccc(O)c2)NC(=O)N1 (configuration not stated) | 55 µM | Dose-dependent effect | 68 µM | 98 µM | 1.4 | 40 µM | 85 µM | 1.3 | 89 µM
CC1=C(c2nc(-c3ccc(C#N)cc3)cs2)C(c2ccncc2F)NC(=O)N1 (configuration not stated) | – | – | 63.4 µM | > 100 µM | – | – | – | 1.6 | > 100 µM
CC1=C(c2nc(-c3ccc(C#N)cc3)cs2)C(c2cccc(OC(F)(F)F)c2)NC(=O)N1 (configuration not stated) | > 100 µM | Dose-dependent effect | 2.4 µM | 69.8 µM | 2.4 | 41.2 µM | > 100 µM | 42 | > 100 µM
CC1=C(c2nc(-c3ccccc3)cs2)C(c2cccc(O)c2)NC(=O)N1 (configuration not stated) | 76 µM | Dose-dependent effect | 79 µM | > 100 µM | 2 | 37 µM | 81 µM | 1.3 | > 100 µM
CC1=C(c2nc(-c3ccc(C)cc3)cs2)C(c2cccc(O)c2)NC(=O)N1 (configuration not stated) | 65 µM | Dose-dependent effect | 31 µM | 80 µM | 4.1 | 16 µM | 48 µM | 2 | 61 µM
CC1=C(c2nc(-c3ccc(C(F)(F)F)cc3)cs2)C(c2cccc(O)c2)NC(=O)N1 (configuration not stated) | 57 µM | Dose-dependent effect | 5.2 µM | 23 µM | 9.7 | 5.9 µM | 18 µM | 7.7 | 40 µM
CC1=C(c2nc(-c3ccc(C#N)cc3)cs2)C(c2cccc(O)c2)NC(=O)N1C (configuration not stated) | > 100 µM | Dose-dependent effect | 2.4 µM | 13.8 µM | 31 | 3.2 µM | 8.5 µM | 42 | > 100 µM
CC1=C(c2nc(-c3ccc(C#N)cc3)cs2)C(c2ccc3ccccc3n2)NC(=O)N1 (configuration not stated) | > 100 µM | Dose-dependent effect | 1.5 µM | 12.7 µM | 77 | 1.3 µM | 5.5 µM | 67 | > 100 µM
CC1=C(c2nc(-c3ccc(C#N)cc3)cs2)C(c2ccnc3ccccc23)NC(=O)N1 (configuration not stated) | 68.3 µM | Dose-dependent effect | 3.8 µM | 98.3 µM | 24 | 2.9 µM | 10.5 µM | 26 | > 100 µM
CC1=C(c2nc(-c3cccs3)cs2)C(c2cccc(O)c2)NC(=O)N1 (configuration not stated) | – | – | 49 µM | > 100 µM | – | – | – | 2 | > 100 µM
